Values of other authors as cited in patent US4829051A, “N-substituted derivatives of 1-desaminovasopressin” (Vega Laboratories, Inc., priority 1984, dated 1989).

Conditions: in vivo

NC(=O)CC[C@@H]1NC(=O)[C@H](Cc2ccccc2)NC(=O)[C@H](Cc2ccc(O)cc2)NC(=O)CCSSC[C@@H](C(=O)N2CCC[C@H]2C(=O)N[C@H](CCCN=C(N)N)C(=O)NCC(N)=O)NC(=O)[C@H](CC(N)=O)NC1=O [desmopressin]
Antidiuretic activity: enhanced and prolonged antidiuretic activity
Pressor activity: low pressor activity
